Data set [1] in a line: Inhibition of human/mouse notum pectinacetylesterase using OPTS as substrate by fluorimetric assay.
In data set [2] the target is T1, Palmitoleoyl-protein carboxylesterase NOTUM (Mus musculus, UniProt Q8R116).
T1 sequence (Q8R116 whole entry): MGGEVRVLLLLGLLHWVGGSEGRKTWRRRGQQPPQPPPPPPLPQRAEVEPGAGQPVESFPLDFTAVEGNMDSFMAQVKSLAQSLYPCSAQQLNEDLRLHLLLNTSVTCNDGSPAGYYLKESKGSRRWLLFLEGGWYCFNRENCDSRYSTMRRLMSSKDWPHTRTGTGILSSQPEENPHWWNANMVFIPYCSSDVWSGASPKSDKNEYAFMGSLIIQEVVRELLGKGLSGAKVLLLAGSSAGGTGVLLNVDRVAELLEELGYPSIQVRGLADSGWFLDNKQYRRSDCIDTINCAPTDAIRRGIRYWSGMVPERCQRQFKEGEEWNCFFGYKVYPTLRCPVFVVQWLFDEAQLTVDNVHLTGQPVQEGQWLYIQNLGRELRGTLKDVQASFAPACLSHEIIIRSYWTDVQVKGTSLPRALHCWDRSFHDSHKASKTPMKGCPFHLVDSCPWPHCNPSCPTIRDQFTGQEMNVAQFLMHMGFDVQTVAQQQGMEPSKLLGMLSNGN
Put plainly: Inhibition of mouse notum pectinacetylesterase expressed in 293F cells after 30 mins by TCF/LEF cell sensor assay. The class given is cell-based.

The target in data set [3] is T2, Palmitoleoyl-protein carboxylesterase NOTUM (Homo sapiens, UniProt Q6P988).
T2 sequence (Q6P988 whole entry): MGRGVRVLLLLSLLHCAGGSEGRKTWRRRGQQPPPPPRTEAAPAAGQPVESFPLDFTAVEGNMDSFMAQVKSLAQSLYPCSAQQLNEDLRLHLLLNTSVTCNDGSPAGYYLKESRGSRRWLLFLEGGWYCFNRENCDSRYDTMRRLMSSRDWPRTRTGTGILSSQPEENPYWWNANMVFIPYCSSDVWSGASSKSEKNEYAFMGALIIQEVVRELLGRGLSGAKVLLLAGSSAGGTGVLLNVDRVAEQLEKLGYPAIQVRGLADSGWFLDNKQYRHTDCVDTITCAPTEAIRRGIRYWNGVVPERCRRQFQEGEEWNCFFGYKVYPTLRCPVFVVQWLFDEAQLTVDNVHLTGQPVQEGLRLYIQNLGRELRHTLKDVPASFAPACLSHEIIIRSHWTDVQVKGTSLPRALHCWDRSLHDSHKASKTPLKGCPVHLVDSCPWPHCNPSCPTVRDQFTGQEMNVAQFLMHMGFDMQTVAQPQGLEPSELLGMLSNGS
Put plainly: Inhibition of human notum pectinacetylesterase expressed in 293F cells after 30 mins by TCF/LEF cell sensor assay. The class given is cell-based.

The nature of data set [4]: Cmax in mouse at 10 mg/kg, po. The data set is classed as ADME, organism-based. On the set-up: dose 10 mg/kg, route oral. To be noted: in vivo.
A short description of data set [5]: AUC in mouse at 10 mg/kg, po. The class given is ADME, organism-based. Particulars: in vivo.
Data set [6] can be described thus: Clearance in mouse at 10 mg/kg, po. The class given is ADME, organism-based. Particulars: in vivo.
In another data set the test system is Mus musculus. Put plainly: Volume of distribution at steady state in mouse at 10 mg/kg, po. To be noted: in vivo. The class given is ADME, organism-based.
Data set [7] can be described thus: Oral bioavailability in mouse at 10 mg/kg. The data set is classed as ADME, organism-based. Particulars: in vivo.

For the compound `O=C(O)CSc1ncnc2sc3c(c12)CCCC3`, the midpoint of inhibition in data set [1], the IC50, lay at 620 nM.
On to `Cc1sc2ncnc(SCC(=O)O)c2c1C`, for which the IC50 (usually the concentration that inhibits the measured activity by half) in data set [1] was 2 nM. Besides, the EC50 (commonly the midpoint of the concentration-response curve) in data set [2] came to 1020 nM.
In data set [1], `Cc1cc2c(SCC(=O)O)ncnc2s1` displayed an IC50 of 152 nM.
On to `Cc1c(Br)sc2ncnc(SCC(=O)O)c12`, for which the values for the EC50 in data set [3] and in data set [2] were 144 nM and 485 nM, respectively.
`Cc1csc2ncnc(SCC(=O)O)c12` returned an IC50 in data set [1] of 92 nM.
On to `Cc1sc2c(SCC(=O)O)ncnc2c1Cl`, for which the EC50 in data set [3] was 1960 nM; in data set [2] it was 5510 nM.
`Cc1sc2ncnc(SCC(=O)O)c2c1Cl`: the EC50 in data set [3] was 107 nM; in data set [2], 409 nM. The concentration in data set [4] peaked (Cmax) at 157 µM. The AUC (as a rule, concentration integrated over time) in data set [5] worked out at 515 µM·h. In addition, in data set [6], the CL/F (in general, the apparent clearance, not corrected for the fraction that reaches the circulation) was 1.22 mL/min/kg. Besides, the Vdss in the data set on Mus musculus stood at 0.16 L/kg. Besides, in data set [7], the bioavailability (in general, the share of a dose that reaches the circulation, judged against a reference dose that is usually intravenous) is 95%.
As to `Cc1csc2c(SCC(=O)O)ncnc12`, the IC50 in data set [1] amounted to 193 nM.
In data set [1], `Cc1sc2ncnc(SCC(=O)NC#N)c2c1C` returned an IC50 of 2 nM. The compound further had an EC50 in data set [3] of 400 nM.
Take `O=C(O)CSc1ncnc2ccccc12`: the IC50 in data set [1] was found to be 1200 nM.
In the case of `Cc1sc2c(SCC(=O)O)ncnc2c1C`, the EC50 was found to be 881 nM in data set [3] and 4470 nM in data set [2].
The matching figures for `CCc1c(C)sc2ncnc(SCC(=O)O)c12`: 21900 nM and 65400 nM.
Take `O=C(O)CSc1ncnc2c(C3CC3)c(Cl)sc12`: in data set [2], the midpoint of the response, the EC50, lay at 55 nM. The Vdss with Mus musculus amounted to 0.13 L/kg.
Regarding `Cc1c(Cl)sc2ncnc(SCC(=O)O)c12`, the EC50 in data set [3] was determined as 885 nM; in data set [2], 2560 nM.
For `CNC(=O)CSc1ncnc2sc(C)c(C)c12`, the IC50 in data set [1] is 27 nM. Further, in data set [3], the midpoint of the response, the EC50, lay at 789 nM.
As to `O=C(O)CSc1ncnc2c(C3CC3)c(C(F)(F)F)sc12`, the EC50 in data set [3] was determined as 12 nM; in data set [2], 43 nM.
For `Cc1sc2ncnc(SCC(N)=O)c2c1C`, in data set [1], 2 nM corresponded to half-maximal inhibition (IC50). This compound registered a half-maximal effective concentration (EC50) in data set [3] of 857 nM.
`Cc1sc2ncnc(SCC(=O)c3ccc(CNC(=O)C(C)C)o3)c2c1C` came in with an IC50 in data set [1] of 6 nM. For the same compound, the EC50 in data set [3] was 211 nM.
On to `O=C(O)CSc1ncnc2[nH]ncc12`, for which it took 15000 nM to reach half-maximal inhibition in data set [1] (IC50).
As to `Cc1sc2ncnc(SCC(=O)c3c[nH]c(C(=O)N4CCCC4)c3)c2c1C`, in data set [1], half-maximal inhibition (IC50) was put at 10 nM. For the same compound, the EC50 in data set [3] was found to be 280 nM.
Turning to `CCCc1sc2ncnc(SCC(=O)O)c2c1Cl`, the EC50 is 88 nM in data set [3] and 342 nM in data set [2].
In turn, `Cc1sc2ncnc(SCC(=O)c3c[nH]c(CNS(=O)(=O)C4CC4)c3)c2c1C` came in with an IC50 in data set [1] of 2 nM. For the same compound, it took 168 nM to reach a half-maximal effect in data set [3] (EC50).
For `Cc1sc2ncnc(SCC(=O)NS(C)(=O)=O)c2c1C`, the IC50 in data set [1] stood at 11 nM. It took 1460 nM to reach a half-maximal effect in data set [3] (EC50).
As to `Cc1c(Cl)sc2c(SCC(=O)O)ncnc12`, the figures for the EC50 in data set [3] and in data set [2] were 435 nM and 1440 nM, respectively.
As to `CCc1sc2ncnc(SCC(=O)O)c2c1Cl`, the EC50 was 393 nM in data set [3] and 1440 nM in data set [2].
As for `Cc1sc2c(SCC(=O)O)ncnc2c1C1CC1`, the EC50 was 115 nM in data set [3] and 408 nM in data set [2].
Consider `Cc1c(Br)sc2c(SCC(=O)O)ncnc12`, for which the EC50 in data set [3] is 417 nM; in data set [2], 1360 nM.
As to `O=C(O)CSc1ncnc2[nH]ccc12`, 15000 nM corresponded to half-maximal inhibition in data set [1] (IC50).
Turning to `Cc1sc2ncnc(SCC(=O)NO)c2c1C`, in data set [1], the IC50 came out at 2 nM. In addition, in data set [3], a half-maximal effect (EC50) was put at 556 nM.
For `Cc1sc2ncnc(SCC(=O)O)c2c1Br`, the EC50 amounted to 208 nM in data set [3] and 375 nM in data set [2].
On to `O=C(O)CSc1ncnc2scnc12`, for which the half-inhibitory concentration (IC50) in data set [1] came out at 15000 nM.
Consider `CCc1sc2ncnc(SCC(=O)O)c2c1C`, for which the figures for the EC50 in data set [3] and in data set [2] were 835 nM and 2640 nM, respectively.
Regarding `Cc1sc2ncnc(SCC(=O)c3ccc(CNC(=O)C4CC4)o3)c2c1C`, the IC50 in data set [1] came to 5 nM. A half-maximal response in data set [3] (EC50) required 249 nM.
`CC(C)c1sc2ncnc(SCC(=O)O)c2c1Cl`: the EC50 in data set [3] came to 477 nM; in data set [2] it was 828 nM.
Take `COC(=O)CSc1ncnc2sc(C)c(C)c12`: the IC50 in data set [1] amounted to 2 nM. Also, in data set [3], the response was half-maximal at 445 nM (EC50).
`O=C(O)CSc1ncnc2sc(C3CC3)c(Cl)c12`: the EC50 in data set [3] stood at 250 nM; in data set [2] it was 1010 nM.
For `O=C(O)CSc1ncnc2sccc12`, the concentration for half-maximal inhibition (IC50) in data set [1] turned out to be 2800 nM.

The values above are taken from ChEMBL document CHEMBL3774323, “Stimulation of cortical bone formation with thienopyrimidine based inhibitors of Notum Pectinacetylesterase” (Bioorg Med Chem Lett, 2016).
